Data as given in patent US10723778B2, “Variants of adrenomedullin and calcitonin gene-related peptide and methods of use” (The Board of Regents of the University of Oklahoma, priority 2015, dated 2020).
Where two headings read alike, the source gives them in different places. Where no end group is shown, it is not given here.

Assays:
[1] = target: T1, RAMP1-CLR ECD (CGRP); purified MBP-RAMP1 ECD-(GS)5-CLR ECD-H6 fusion protein (Homo sapiens, UniProt O60894+Q16602); assay: Fluorescence polarization (FP) peptide binding competition assay, CGRP receptor ECD complex; settings: for Receptor Selectivity, fold for CGRP: CGRP (RAMP1-CLR ECD) over AM1 (RAMP2-CLR ECD); for Receptor Selectivity (in words): CGRP vs AM1 receptor ECD complexes
T1 construct: MBP-hRAMP1.24-111-(Gly-Ser)5-hCLR.29-144-H6; made in house; host or cells: E. coli
Procedure: (§1) Fluorescence polarization peptide binding assay. […] The reactions (50 μL) were incubated for 2 hours at room temperature to reach equilibrium, and the anisotropy was measured in black half-area 96-well plates using a BMG LABTECH's POLARstar® Omega plate reader (Ortenberg, Germany). The reaction buffer was 50 mM HEPES, pH 7.5, 150 mM NaCl, 0.5 mg/ml fatty acid-free BSA, 0.5 mM EDTA, 0.5 mM maltose. Ki values were calculated using nonlinear regression fitting of the competition curves to the exact analytical equations of Roehrl et al. (Biochemistry (2004) 43:16056-66) using GraphPad Prism 5.0 (GraphPad Software, San Diego Calif.).
(§2) The ability of the indicated peptides to displace a FITC-Ahx-AM(37-52)NH2 [S45W, Q50W] probe (7 nM) from purified MBP-RAMP1 ECD-(GS)5-CLR ECD-H6 fusion protein (15 nM) was assessed by fluorescence polarization (anisotropy). The reactions were incubated for 2 hours at room temperature to reach equilibrium, and the anisotropy was measured in black half-area 96-well plates using a BMG LABTECH's POLARstar® Omega plate reader (Ortenberg, Germany). The reaction buffer was 50 mM HEPES, pH 7.5, 150 mM NaCl, 0.5 mg/ml fatty acid-free BSA, 0.5 mM EDTA, 0.5 mM maltose. KI values were calculated using nonlinear regression fitting of the competition curves to the exact analytical equations of Roehrl et al. (Biochemistry (2004) 43:16056-66) using GraphPad Prism 5.0 (GraphPad Software, San Diego Calif.).
as §2, with “Single representative experiments conducted with duplicate samples are shown. Error bars are S.E.M. The ability” for “The ability”, “displace a FITC-Ahx-AM(37-52)NH2[S45W, Q50W] probe” for “displace a FITC-Ahx-AM(37-52)NH2 [S45W, Q50W] probe”
A fluorescence polarization/anisotropy (FP) peptide-binding assay was developed using N-terminally FITC-labeled AM(37-52) S45W/Q50W as the probe, hereafter “FITC-AM W/W.” The probe was custom synthesized and HPLC-purified by RS Synthesis. The large size difference between the MBP-RAMP ECD-CLR ECD fusion proteins (˜65 kDa) and the probe (˜2.5 kDa) ensures a significant anisotropy difference between bound and free states of the probe. […] Kd values for the probe at each of the tethered ECD fusion proteins were determined in equilibrium saturation binding experiments (data not shown), and KI values were determined for unlabeled peptides in equilibrium competition experiments (Table 1; FIGS. 2-5). The data were analyzed according to exact analytical equations using non-linear regression curve fitting in GraphPad Prism 5.0 (GraphPad Software) via user-defined equations.

[2] = target: T2, RAMP2-CLR ECD (AM1); purified MBP-RAMP2 ECD [L106R]-(GS)5-CLR ECD-H6 fusion protein (Homo sapiens, UniProt O60895+Q16602, L106R); assay: Fluorescence polarization (FP) peptide binding competition assay, AM1 receptor ECD complex; settings: for RAMP2-CLR ECD (AM1) KI (nM) / Ki: FP competition, FITC-AM W/W probe 7 nM, fusion protein 110 nM
T2 construct: MBP-hRAMP2.55-140 [L106R]-(Gly-Ser-Ala)3-hCLR.29-144-H6; made in house; host or cells: E. coli
Procedure: as §1
FIG. 3(A-K) depicts binding of (A) AM-based peptide AM(37-52)NH2, and variant peptide AM(37-52)NH2[S45W, Q50W]; (B) AM-based peptide AM(37-52)NH2, variant peptide AM(37-52)NH2[Q50F], and variant peptide AM(37-52)NH2[Q50W]; (C) variant peptides AM(37-52)NH2[K46L], AM(37-52)NH2[K46M], and AM(37-52)NH2[D39F]; (D) variant peptides AM(37-52)NH2[D39F, K46L, Q50W], AM(37-52)NH2[D39F, K46L, Q50W, Y52F], and AM(37-52)NH2[S45W, K46L, Q50W, Y52F]; (E) variant peptides AM(37-52)NH2[[D39K], AM(37-52)NH2[K46L, Q50W], and AM(37-52)NH2[K46L, Q50W, Y52F]; (F) variant peptides AM(37-52)NH2[S45W, K46M, Q50W, Y52F], and AM(37-52)NH2[S45W, K46W, Q50W, Y52F]; (G) variant peptides AM(37-52)NH2[S45T, K46W, Q50W], AM(37-52)NH2[S45T, K46L, Q50W], and AM(37-52)NH2[S45W, K46L, S48G, Q50W, Y52F]; (H) variant peptide AM(37-52)NH2[S45W, K46L, I47M, Q50W, Y52F]; (I) variant peptides AM(37-52)NH2[S45R, K46W, Q50W], and AM(37-52)NH2[S45R, K46L, Q50W]; (J) variant peptides AM(37-52)NH2[S45R, K46W, S48G, Q50W], AM(37-52)NH2[S45R, K46L, S48G, Q50W], and AM(37-52)NH2[S45R, K46W, I47L, S48G, Q50W]; and (K) variant peptides AM(37-52)NH2[D39W, Q50W], and AM(37-52)NH2[D37V, S45W, K46L, Q50W, Y52F], to the purified AM1 receptor extracellular domain complex. Single representative experiments conducted with duplicate samples are shown. […] The reactions were incubated for 2 hours at room temperature to reach equilibrium, and the anisotropy was measured in black half-area 96-well plates using a BMG LABTECH's POLARstar® Omega plate reader (Ortenberg, Germany). The reaction buffer was 50 mM HEPES, pH 7.5, 150 mM NaCl, 0.5 mg/ml fatty acid-free BSA, 0.5 mM EDTA, 0.5 mM maltose. KI values were calculated using nonlinear regression fitting of the competition curves to the exact analytical equations of Roehrl et al. (Biochemistry (2004) 43:16056-66) using GraphPad Prism 5.0 (GraphPad Software, San Diego Calif.).
as §1, with “Single representative experiments conducted with duplicate samples are shown.” for “Fluorescence polarization peptide binding assay.”, “reactions” for “reactions (50 μL)”, “KI” for “Ki”
A fluorescence polarization/anisotropy (FP) peptide-binding assay was developed using N-terminally FITC-labeled AM(37-52) S45W/Q50W as the probe, hereafter “FITC-AM W/W.” The probe was custom synthesized and HPLC-purified by RS Synthesis. The large size difference between the MBP-RAMP ECD-CLR ECD fusion proteins (˜65 kDa) and the probe (˜2.5 kDa) ensures a significant anisotropy difference between bound and free states of the probe. […] Kd values for the probe at each of the tethered ECD fusion proteins were determined in equilibrium saturation binding experiments (data not shown), and KI values were determined for unlabeled peptides in equilibrium competition experiments (Table 1; FIGS. 2-5).

[3] = FP competition, FITC-AM W/W probe 7 nM, fusion protein 15 nM
[4] = RAMP1-CLR ECD (CGRP) KI (nM), FP competition, FITC-AM W/W probe 7 nM, fusion protein 15 nM
[5] = read-out: RAMP2-CLR ECD (AM1) KI

Row | Substance | Ki [1, 4] [nM] | Receptor Selectivity, fold for CGRP ([1]; FP assay) | other results
1 | D39F: AM(37-52)NH2 scaffold variant peptide with D39F substitution (DKFNVAPRSKISPQGY-NH2) [Peptide D39F] | – | – | RAMP1-CLR ECD (CGRP) KI (nM) [1, 3]: No binding; RAMP2-CLR ECD (AM1) KI (nM) [2]: No binding
2 | DKDNVAPRSKISPFGY-NH2 [Peptide Q50F] | 10500 | – | Receptor Selectivity, fold for AM1 ([2]; AM1 (RAMP2-CLR ECD) over CGRP (RAMP1-CLR ECD), FP assay): 5-fold for AM1
3 | DKDNVAPRSLISPQGY [Peptide K46L] | – | – | RAMP1-CLR ECD (CGRP) KI (nM) [1, 3]: No binding; RAMP2-CLR ECD (AM1) KI (nM) [2]: No binding
4 | DKDNVAPRSLISPWGF-NH2 [K46L/Q50W/Y52F] | 31.6 | 2820-fold for CGRP | –
5 | DKDNVAPRSLISPWGY-NH2 [K46L/Q50W] | 70.8 | 23-fold for CGRP | –
6 | DKDNVAPRSMISPQGY [Peptide K46M] | – | – | RAMP1-CLR ECD (CGRP) KI (nM) [1, 3]: No binding; RAMP2-CLR ECD (AM1) KI (nM) [2]: No binding
7 | DKDNVAPRTLISPWGY-NH2 [S45T/K46L/Q50W] | 65.6 | 24-fold for CGRP | –
8 | DKDNVAPRTWISPWGY-NH2 [S45T/K46W/Q50W] | 439 | 28-fold for CGRP | –
9 | DKDNVAPRWKISPWGY-NH2 [S45W/Q50W] | 44.7 | – | Receptor Selectivity (in words) ([1]; FP assay): Non-selective
10 | DKDNVAPRWLMSPWGF-NH2 [S45W/K46L/I47M/Q50W/Y52F] | 0.78 | – | Receptor Selectivity (in words) ([1]; FP assay): CGRP (very selective); Ki ([1]; KI for the CGRP receptor ECD complex, FP assay): ~0.78 nM; RAMP2-CLR ECD (AM1) KI (nM) [2]: No binding; RAMP2-CLR ECD (AM1) KI (nM) ([2]; listed as AM(37-52)NH2[S45W, K46L, I47M, Q50W, Y52F]): no binding
11 | DKDNVAPRWMISPWGF-NH2 [S45W/K46M/Q50W/Y52F] | 7.94 | 977-fold for CGRP | –
12 | DKDNVAPRWWISPWGF-NH2 [S45W/K46W/Q50W/Y52F] | 24 | 692-fold for CGRP | –
13 | DKFNVAPRSLISPWGF-NH2 [D39F/K46L/Q50W/Y52F] | 25 | 1213-fold for CGRP | Ki ([2]; mean ± S.E.M, read-out: RAMP2-CLR ECD (AM1) pKI (converted)): 28200 nM
14 | DKFNVAPRSLISPWGY-NH2 [D39F/K46L/Q50W] | 82.2 | 22-fold for CGRP | Ki ([1]; RAMP1-CLR ECD (CGRP) pKI, FP competition, FITC-AM W/W probe 7 nM, fusion protein 15 nM, mean ± S.E.M of at least 3 independent experiments): 79.4 nM
15 | DKKNVAPRSKISPQGY-NH2 [Peptide D39K] | – | – | Receptor Selectivity (in words) ([1]; FP assay): AM1; RAMP1-CLR ECD (CGRP) KI (nM) [1, 3]: No binding
16 | FVPTDTGPWGF-NH2 [N31D/V32T/S34P/K35W/A36G] | 6.85 | – | Receptor Selectivity (in words) ([1]; FP assay): CGRP; RAMP2-CLR ECD (AM1) KI (nM) [2]: No binding
17 | FVPTDTGPWGY-NH2 [N31D/V32T/S34P/K35W/A36G/F37Y] | 17.6 | 821-fold for CGRP | –
18 | FVPTDTGPWSF-NH2 [N31D/V32T/S34P/K35W/A36S] | < 1 | ≥2754-fold for CGRP | KI for the CGRP receptor ECD complex ([1]; FP assay): well into the pM range
19 | FVPTDVGPFSF-NH2 [N31D/S34P/K35F/A36S] | 2.95 | – | Receptor Selectivity (in words) ([1]; FP assay): CGRP over AM1; Ki [2, 5]: > 10000 nM
20 | FVPTDVGPWAF-NH2 [N31D/S34P/K35W] | 8.13 | – | Receptor Selectivity (in words) ([1]; FP assay): CGRP; RAMP2-CLR ECD (AM1) KI (nM) [2]: No binding
21 | FVPTDVGPWSY-NH2 [N31D/S34P/K35W/A36S/F37Y] | 1.32 | 245-fold for CGRP | Ki [2, 5]: 324 nM
